# Calls of active or inactive are those of the source. No rule for the calls is given here.
# Tested on: CCRIS mutagenicity, Ames/micronucleus/aberration tests
# Experiment: CCRIS mutagenicity studies
# [1] = Test System: AMES SALMONELLA TYPHIMURIUM, Strain/Indicator: TA97, Metabolic Activation: NONE, Method: PREINCUBATION
# [2] = Test System: AMES SALMONELLA TYPHIMURIUM, Strain/Indicator: TA100, Metabolic Activation: NONE, Method: PREINCUBATION
# [3] = Test System: AMES SALMONELLA TYPHIMURIUM, Strain/Indicator: TA1537, Metabolic Activation: NONE, Method: PREINCUBATION
# [4] = Test System: MOUSE LYMPHOMA, Strain/Indicator: L5178Y (TK+/TK-), Metabolic Activation: NONE, Method: SUSPENSION/PLATE
# [5] = Test System: MOUSE LYMPHOMA, Strain/Indicator: L5178Y (TK+/TK-), Metabolic Activation: RAT, LIVER, S-9, AROCLOR 1254, Method: SUSPENSION/PLATE
smiles,measurement,setting,value
N#Cc1ccccc1,mutagenic call,"End Point: IN VITRO MICRONUCLEUS, Test System: CHINESE HAMSTER V79, Metabolic Activation: NONE",active; positive
same,mutagenic call,"Test System: AMES SALMONELLA TYPHIMURIUM, Strain/Indicator: TA97, Metabolic Activation: HAMSTER, LIVER, S-9, AROCLOR 1254 (10 OR 30%), Method: PREINCUBATION",inactive; negative
same,mutagenic call,[1],inactive; negative
same,mutagenic call,"Test System: AMES SALMONELLA TYPHIMURIUM, Strain/Indicator: TA97, Metabolic Activation: RAT, LIVER, S-9, AROCLOR 1254 (10 OR 30%), Method: PREINCUBATION",inactive; negative
same,mutagenic call,"Test System: AMES SALMONELLA TYPHIMURIUM, Strain/Indicator: TA98, Metabolic Activation: HAMSTER, LIVER, S-9, AROCLOR 1254 (10 OR 30%), Method: PREINCUBATION",inactive; negative
same,mutagenic call,"Test System: AMES SALMONELLA TYPHIMURIUM, Strain/Indicator: TA98, Metabolic Activation: HAMSTER, LIVER, S-9, AROCLOR 1254, Method: STANDARD PLATE",inactive; negative
same,mutagenic call,"Test System: AMES SALMONELLA TYPHIMURIUM, Strain/Indicator: TA98, Metabolic Activation: NONE, Method: PREINCUBATION",inactive; negative
same,mutagenic call,"Test System: AMES SALMONELLA TYPHIMURIUM, Strain/Indicator: TA98, Metabolic Activation: NONE, Method: STANDARD PLATE",inactive; negative
same,mutagenic call,"Test System: AMES SALMONELLA TYPHIMURIUM, Strain/Indicator: TA98, Metabolic Activation: RAT LIVER S-9, PHENOBARBITAL AND BETA-NAPHTHOFLAVONE, Method: PREINCUBATION",inactive; negative
same,mutagenic call,"Test System: AMES SALMONELLA TYPHIMURIUM, Strain/Indicator: TA98, Metabolic Activation: RAT, LIVER, S-9, AROCLOR 1254 (10 OR 30%), Method: PREINCUBATION",inactive; negative
same,mutagenic call,"Test System: AMES SALMONELLA TYPHIMURIUM, Strain/Indicator: TA98, Metabolic Activation: RAT, LIVER, S-9, AROCLOR 1254, Method: STANDARD PLATE",inactive; negative
same,mutagenic call,"Test System: AMES SALMONELLA TYPHIMURIUM, Strain/Indicator: TA100, Metabolic Activation: HAMSTER, LIVER, S-9, AROCLOR 1254 (10 OR 30%), Method: PREINCUBATION",inactive; negative
same,mutagenic call,"Test System: AMES SALMONELLA TYPHIMURIUM, Strain/Indicator: TA100, Metabolic Activation: HAMSTER, LIVER, S-9, AROCLOR 1254, Method: STANDARD PLATE",inactive; negative
same,mutagenic call,[2],inactive; negative
same,mutagenic call,"Test System: AMES SALMONELLA TYPHIMURIUM, Strain/Indicator: TA100, Metabolic Activation: NONE, Method: STANDARD PLATE",inactive; negative
same,mutagenic call,"Test System: AMES SALMONELLA TYPHIMURIUM, Strain/Indicator: TA100, Metabolic Activation: RAT LIVER S-9, PHENOBARBITAL AND BETA-NAPHTHOFLAVONE, Method: PREINCUBATION",inactive; negative
same,mutagenic call,"Test System: AMES SALMONELLA TYPHIMURIUM, Strain/Indicator: TA100, Metabolic Activation: RAT, LIVER, S-9, AROCLOR 1254 (10 OR 30%), Method: PREINCUBATION",inactive; negative
same,mutagenic call,"Test System: AMES SALMONELLA TYPHIMURIUM, Strain/Indicator: TA100, Metabolic Activation: RAT, LIVER, S-9, AROCLOR 1254, Method: STANDARD PLATE",inactive; negative
same,mutagenic call,"Test System: AMES SALMONELLA TYPHIMURIUM, Strain/Indicator: TA1535, Metabolic Activation: HAMSTER, LIVER, S-9, AROCLOR 1254 (10 OR 30%), Method: PREINCUBATION",inactive; negative
same,mutagenic call,"Test System: AMES SALMONELLA TYPHIMURIUM, Strain/Indicator: TA1535, Metabolic Activation: HAMSTER, LIVER, S-9, AROCLOR 1254, Method: STANDARD PLATE",inactive; negative
same,mutagenic call,"Test System: AMES SALMONELLA TYPHIMURIUM, Strain/Indicator: TA1535, Metabolic Activation: NONE, Method: PREINCUBATION",inactive; negative
same,mutagenic call,"Test System: AMES SALMONELLA TYPHIMURIUM, Strain/Indicator: TA1535, Metabolic Activation: NONE, Method: STANDARD PLATE",inactive; negative
same,mutagenic call,"Test System: AMES SALMONELLA TYPHIMURIUM, Strain/Indicator: TA1535, Metabolic Activation: RAT LIVER S-9, PHENOBARBITAL AND BETA-NAPHTHOFLAVONE, Method: PREINCUBATION",inactive; negative
same,mutagenic call,"Test System: AMES SALMONELLA TYPHIMURIUM, Strain/Indicator: TA1535, Metabolic Activation: RAT, LIVER, S-9, AROCLOR 1254 (10 OR 30%), Method: PREINCUBATION",inactive; negative
same,mutagenic call,"Test System: AMES SALMONELLA TYPHIMURIUM, Strain/Indicator: TA1535, Metabolic Activation: RAT, LIVER, S-9, AROCLOR 1254, Method: STANDARD PLATE",inactive; negative
same,mutagenic call,"Test System: AMES SALMONELLA TYPHIMURIUM, Strain/Indicator: TA1537, Metabolic Activation: HAMSTER, LIVER, S-9, AROCLOR 1254, Method: STANDARD PLATE",inactive; negative
same,mutagenic call,[3],inactive; negative
same,mutagenic call,"Test System: AMES SALMONELLA TYPHIMURIUM, Strain/Indicator: TA1537, Metabolic Activation: NONE, Method: STANDARD PLATE",inactive; negative
same,mutagenic call,"Test System: AMES SALMONELLA TYPHIMURIUM, Strain/Indicator: TA1537, Metabolic Activation: RAT LIVER S-9, PHENOBARBITAL AND BETA-NAPHTHOFLAVONE, Method: PREINCUBATION",inactive; negative
same,mutagenic call,"Test System: AMES SALMONELLA TYPHIMURIUM, Strain/Indicator: TA1537, Metabolic Activation: RAT, LIVER, S-9, AROCLOR 1254, Method: STANDARD PLATE",inactive; negative
same,mutagenic call,"Test System: AMES SALMONELLA TYPHIMURIUM, Strain/Indicator: TA1538, Metabolic Activation: HAMSTER, LIVER, S-9, AROCLOR 1254, Method: STANDARD PLATE",inactive; negative
same,mutagenic call,"Test System: AMES SALMONELLA TYPHIMURIUM, Strain/Indicator: TA1538, Metabolic Activation: NONE, Method: STANDARD PLATE",inactive; negative
same,mutagenic call,"Test System: AMES SALMONELLA TYPHIMURIUM, Strain/Indicator: TA1538, Metabolic Activation: RAT, LIVER, S-9, AROCLOR 1254, Method: STANDARD PLATE",inactive; negative
same,mutagenic call,"Test System: E. COLI, Strain/Indicator: WP2UVRA, Metabolic Activation: NONE, Method: PREINCUBATION",inactive; negative
same,mutagenic call,"Test System: E. COLI, Strain/Indicator: WP2UVRA, Metabolic Activation: RAT LIVER S-9, PHENOBARBITAL AND BETA-NAPHTHOFLAVONE, Method: PREINCUBATION",inactive; negative
same,mutagenic call,[4],inactive; negative. reevaluation of results: negative
same,mutagenic call,[5],inactive; negative. reevaluation of results: negative
Nc1nccs1,mutagenic call,"Test System: AMES SALMONELLA TYPHIMURIUM, Strain/Indicator: TA98, Metabolic Activation: RAT, LIVER, S-9, AROCLOR 1254, HAMSTER, LIVER, S-9, AROCLOR 1254, Method: STANDARD PLATE",active; positive
same,mutagenic call,"Test System: AMES SALMONELLA TYPHIMURIUM, Strain/Indicator: TA1538, Metabolic Activation: RAT, LIVER, S-9, AROCLOR 1254, HAMSTER, LIVER, S-9, AROCLOR 1254, Method: STANDARD PLATE",active; positive
same,mutagenic call,[4],active; positive. reevaluation of results: equivocal
same,mutagenic call,[5],active; positive. reevaluation of results: equivocal
COc1cc2c(c3oc(=O)c4c(c13)CCOC4=O)[C@@H]1CCO[C@@H]1O2,mutagenic call,[2],inactive; negative
same,mutagenic call,"Test System: AMES SALMONELLA TYPHIMURIUM, Strain/Indicator: TA100, Metabolic Activation: RAT, LIVER, S-9, PHENOBARBITAL, Method: PREINCUBATION",inactive; negative
CC(C)CCC[C@@H](C)[C@H]1CC[C@H]2[C@@H]3[C@H](OO)C=C4C[C@@H](O)CC[C@]4(C)[C@H]3CC[C@]12C,mutagenic call,[3],active; positive
O=CC(O)C(O)C(O)C(O)CO (stereo not drawn),mutagenic call,[1],inactive; negative
same,mutagenic call,"Test System: AMES SALMONELLA TYPHIMURIUM, Strain/Indicator: TA97, Metabolic Activation: S-9, Method: PREINCUBATION",inactive; negative
same,mutagenic call,"Test System: AMES SALMONELLA TYPHIMURIUM, Strain/Indicator: TA102, Metabolic Activation: NONE, Method: PREINCUBATION",inactive; negative
same,mutagenic call,"Test System: AMES SALMONELLA TYPHIMURIUM, Strain/Indicator: TA102, Metabolic Activation: S-9, Method: PREINCUBATION",inactive; negative
